Data set [1] in a line: Mixing one volume of human insulin with an equal volume of IGF-I: pH, color and appearance. Format: physicochemical. From the text: One volume of human insulin was mixed with an equal volume of IGF-I using the following procedure:
1) Draw air into syringe equal to the amount of human insulin for mixing. Insert the needle into the human insulin bottle and inject air. Withdraw the needle.
3) Turn the bottle and syringe upside down.
4) Make sure the tip of the needle is in the IGF-I, withdraw the correct dose of IGF-I into the syringe.
5) Before removing the needle from the bottle, check the syringe for air bubbles which reduce the amount of IGF-I in it. If bubbles are present, hold the syringe straight up and tap its sides until the bubbles float to the top. Push them out with the plunger and withdraw the correct dose.
6) Remove the needle from the bottle of IGF-I and insert it into the bottle of human insulin. Turn the bottle and syringe upside down. Hold the bottle and syringe firmly in one hand and shake gently (no shaking for regular human insulin). Make sure the tip of the needle is in the insulin, withdraw the dose of human insulin.

Data set [2] is described as follows: Acidic pH reversed-phase HPLC of centrifuged and filtered insulin, IGF-I and insulin/IGF-I mixtures. Format: physicochemical. The method, then:
Human insulin was gently inverted several times to mix the suspension. Approximately 1 mL of sample was withdrawn into an insulin syringe. The insulin was discharged into a centrifuge tube, then centrifuged at 3000 r.p.m. for 10 minutes. The centrifuge step was designed to remove human insulin suspension from solution. After centrifugation, the insulin sample was filtered through a 0.22 μm filter to further remove human insulin suspension. After filtration the solution was analyzed by using the acidic pH reversed-phase HPLC method described below: […]
solvent A: 0.1% trifluoroacetic acid solvent B: 0.1% trifluoroacetic acid in acetonitrile […]
column temperature: 50° C. […]
injection volume: 25 μg/injection
This solution was analyzed by the above HPLC method with no sample preparation step.
IGF-I was diluted to 1 mg/mL using IGF-I placebo. The diluted sample was analyzed by the above HPLC method.
Human insulin was mixed with IGF-I in an insulin syringe using the mixing method described above. Immediately after mixing, the mixture was injected into a centrifuge tube, then gently vortexed for 1-2 seconds. After vortexing, the mixture was centrifuged at 3000 r.p.m. for 10 minutes, then filtered through a 0.22 μm filter to remove human insulin suspension. The filtered sample was then analyzed by the acidic pH reversed-phase HPLC method described above.

In data set [3] the test system is STZ diabetic rats. The data set can be described thus: Plasma glucose after SC injection in STZ diabetic rats (Studies 1-3). Format: in vivo, rat. Here is the method: Forty 7-8 week-old male SD rats were received from Charles River Laboratories and one day later injected with STZ 75 mg/kg IP. Five days later rats were bled via a tail vein, serum was obtained, and glucose concentration measured. All animals with blood glucose <200 mg/dL were not considered diabetic and were removed from the study. […] The right jugular vein was then isolated through a small SC incision and cannulated using a 0.02 inch×0.037 inch beveled silicon rubber-tipped cannula. Cannulas were flushed and checked for patency using heparin (10 U/mL) before closing wounds using 4-0 silk suture thread. Cannulas were "heparin locked" using ~50 μl heparin (100 U/mL) just before the animals were placed on a heated pad for recovery. Rats were placed in their vivarium cage when ambulatory.
The cannulas were flushed daily with fresh heparin/saline to maintain patency. Two days after cannulation, Study 1 (see below) was performed and two days later, Study 2. […]
Plasma glucose concentrations were measured using a Chem 1A serum chemistry analyzer (Miles Laboratories, Tarrytown, N.Y.). Insulin in plasma was measured by rat-specific radioimmunoassay (RIA) (Linco Research Inc., St. Charles, Mo.). Plasma IGF-I was measured by RIA after acid-ethanol extraction of the samples. […]

In data set [4] the test system is patients with IDDM. Description: Four-week randomized placebo-controlled double-blind study of rhIGF-I plus insulin in IDDM: glycemic control and insulin usage. It is filed as in vivo, human. From the text: Forty-three patients (22 males and 21 females) with IDDM, ages 8-17 years, were recruited at three university-based diabetes clinics. The eligibility criteria were as follows:
The study design included a 4-week lead-in period, a 4-week treatment period, and a 2-week wash-out period (FIG. 13). Throughout the study the patients continued to receive two injections of regular and NPH insulin daily. At study entry the patients were provided with detailed instructions on home blood glucose (BG) monitoring technique. They were instructed to test BG before breakfast, lunch, dinner, and the evening snack as well as any times of symptomatic hypoglycemia. The glucose values were automatically stored in the meter (One Touch II--Lifescan Inc., Milpitas, Calif.) and electronically transferred to a personal computer at the study site during each clinic visit. During the lead-in period the patients were counseled weekly on general diabetes care and dietary management (day -28 and -14 at the clinic, day -21 and -7 over the phone). During this period the patients were provided with specific goals of glycemic control and were instructed to call the study sites as often as needed for assistance with insulin adjustment.
(§1) At the end of the lead-in period the patients were randomized to administer either rhIGF-I or placebo as an additional injection immediately before their morning insulin injections. Patients were allocated using an adaptive randomization procedure that stratified based on Tanner stage and the glycosylated hemoglobin value on day -28 of the lead-in period. A seven-day window period was allowed between day -1 of the lead-in period and day 1 of the treatment period. The subjects were admitted to the hospital the afternoon preceding day 1 of treatment and received their usual insulin dose and diet. On day 1, an IV cannula was inserted into the distal forearm or antecubital fossa. A single dose of rhIGF-I (80 μg/kg) or placebo was administered SC, followed by a SC insulin injection and breakfast. The dosing of IGF-I in the morning was for safety reasons. On day 1, the a.m. regular insulin dose was reduced by 1/3in both groups as a precaution against the development of hypoglycemia. Blood samples were obtained for future assay every 15 minutes for the next 3 hours. The patients were encouraged to be active and exercise after the initial 3-hour sampling period. Discharge from the hospital occurred on day 3 or 4 of treatment. The patients were then contacted by phone on day 5 and seen as outpatients on days 7, 14, 21, and 28 of treatment and 14 days after the cessation of dosing. The patients were instructed on dietary and diabetes management at each follow-up appointment.
For the entire four-week treatment period, the rhIGF-I and placebo doses remained constant (80 μg/kg SC q a.m.). However, the insulin doses were adjusted in an attempt to achieve the following BG targets: fasting blood glucose (FBG) 80-120 mg/dl (4.4-6.7 mmol/L) for age greater than 12 years and 80-140 mg/dL (4.4-7.8 mmol/L) for age lower than 12 years; 80-180 mg/dL (4.4-10.0 mmol/L) at any other time. A physical exam was performed on day -28 of the lead-in period, on days 1, 7, 21 and 28 of the treatment period, and on day 14 of the wash-out period. The treatment period was followed by a two-week wash-out period, during which the patients remained on insulin therapy only and dose adjustments continued as necessary to meet the glycemic goals.
The primary indices of glycemic control were: 1) HbA1 was measured at day -28 of the lead-in, as well as at days 1 and 28 of the treatment; 2) the average of the four daily home glucose monitoring values over the last ten days of the lead-in period was compared to the last ten days of treatment. The glycosylated hemoglobin was assayed by affinity chromatography (SmithKline Beecham Clinical Laboratories). The reference range was 4.4-6.1%.
Patients with at least two weeks of post randomization data were included in the analysis. […]

Data set [5] is described as follows: Plasma total and free IGF-I levels in the IDDM clinical study. It is filed as in vivo, human. The conditions noted are these: 2-4 hours after rhIGF-I injection.
Text: as §1, with “The patients were encouraged to be active and exercise after the initial 3-hour sampling period. Discharge from the hospital occurred on day 3 or 4 of treatment. The patients were then contacted by phone on day 5 and seen as outpatients on days 7, 14, 21, and 28 of treatment and 14 days after the cessation of dosing. The patients were instructed on dietary and diabetes management at each follow-up appointment.” left out
Plasma levels of GH, IGF-I, free IGF-I, IGF-II, IGFBP-1, IGFBP-2, and IGFBP-3 were measured. […] Total plasma IGF-I concentrations were determined by radioimmunoassay (RIA) following acid-ethanol extraction as described by Lieberman et al., supra. […]

Data set [6] deals with patients with IDDM. The data set can be described thus: Safety assessments in the IDDM clinical study (hypoglycemia, laboratory profiles, body weight). It is filed as in vivo, human. Here is the method:
The primary safety laboratory evaluations were serum biochemical and thyroid profiles, CBC, urinalysis, 24-hour urinary albumin excretion rate and creatinine clearance. Hypoglycemia was defined by a BG level equal to or lower than 50 mg/dL with or without symptomatology. This definition of hypoglycemia was used for purposes of statistical analysis.
Patients with at least two weeks of post randomization data were included in the analysis. […] The data are summarized by mean±SE for each group. Comparisons between the two groups were performed using the Wilcoxon rank sum test for continuous variables and Fisher's exact test for discrete data. All tests were two-tailed and a p-value less than or equal to 0.05 was considered statistically significant.

[7] abbreviates: last 10 days of treatment period, Mean ± SEM.

With “IGF-I: rhIGF-I (Genentech): 10 mg/mL IGF-I, 5.84 mg/mL NaCl, 9.0 mg/mL benzyl alcohol, 2.0 mg/mL polysorbate 20, 50 mM sodium acetate, pH 5.4”, in data set [1], the “Color and Appearance Before Mixing” value was “colorless, clear”; the “pH Before Mixing” value is 5.4. In data set [2] (IGF-I formulation alone, FIG. 1C), the “IGF-I intact and unoxidized” value was “approximately 99%”. The IGF-I precipitated in data set [2] (immediately after mixing with HUMULIN R) is about 25%. For the same substance, the “blood glucose levels after 6 hours” value in data set [3] (Study 1, 6 hours after SC injection) was “returned to basal values”. In data set [3] (Study 1, twenty minutes post-injection, SC, rhIGF-I 500 μg and/or NPH insulin 5U), the blood glucose levels is listed as 218.3±38.1 mg %. Further, in data set [4] (during treatment), the “average number of NPH units used per kg body weight” value is recorded as 0.65±0.14 units used per kg body weight. Further, in data set [4] (setting [7]), the “Mean Plasma Glucose Concentrations, Pre-bedtime, Treatment” value was 171 ± 51 mg/dL; the “Mean Plasma Glucose Concentrations, Pre-breakfast, Treatment” value is reported as 176 ± 39 mg/dL; the “Mean Plasma Glucose Concentrations, Pre-dinner, Treatment” value is recorded as 199 ± 47 mg/dL; the “Mean Plasma Glucose Concentrations, Pre-lunch, Treatment” value was 142 ± 56 mg/dL. Besides, the “mean reduction of HbA1 during the treatment period” value in data set [4] (rhIGF-I 80 μg/kg SC q a.m. plus regular and NPH insulin, 4 weeks) was 1.8±1.25%. In addition, the “average amount of regular insulin used” value in data set [4] (treatment phase) is 0.20±0.10 insulin units used daily per kg of body weight. In addition, the “free IGF-I level compared with corresponding Tanner stage placebo group” value in data set [5] is “higher”. This substance yielded a body weight in data set [6] (day 28 of treatment) of 55 ± 17 kg. Besides, the “biochemical, lipid, and thyroid profiles” value in data set [6] (throughout the duration of the study) is on record as “remained within normal limits”. Also, in data set [6] (treatment period, BG equal to or lower than 50 mg/dL), the “median amount of hypoglycemic episodes” value came to 6.
